# Results: BindingDB's records for patent US10550100 (GALAPAGOS NV, 2020)
# Molecular target: T1, A disintegrin and metalloproteinase with thrombospondin motifs 6 (Human, UniProt Q9UKP5)
# T1 sequence (Q9UKP5 whole entry): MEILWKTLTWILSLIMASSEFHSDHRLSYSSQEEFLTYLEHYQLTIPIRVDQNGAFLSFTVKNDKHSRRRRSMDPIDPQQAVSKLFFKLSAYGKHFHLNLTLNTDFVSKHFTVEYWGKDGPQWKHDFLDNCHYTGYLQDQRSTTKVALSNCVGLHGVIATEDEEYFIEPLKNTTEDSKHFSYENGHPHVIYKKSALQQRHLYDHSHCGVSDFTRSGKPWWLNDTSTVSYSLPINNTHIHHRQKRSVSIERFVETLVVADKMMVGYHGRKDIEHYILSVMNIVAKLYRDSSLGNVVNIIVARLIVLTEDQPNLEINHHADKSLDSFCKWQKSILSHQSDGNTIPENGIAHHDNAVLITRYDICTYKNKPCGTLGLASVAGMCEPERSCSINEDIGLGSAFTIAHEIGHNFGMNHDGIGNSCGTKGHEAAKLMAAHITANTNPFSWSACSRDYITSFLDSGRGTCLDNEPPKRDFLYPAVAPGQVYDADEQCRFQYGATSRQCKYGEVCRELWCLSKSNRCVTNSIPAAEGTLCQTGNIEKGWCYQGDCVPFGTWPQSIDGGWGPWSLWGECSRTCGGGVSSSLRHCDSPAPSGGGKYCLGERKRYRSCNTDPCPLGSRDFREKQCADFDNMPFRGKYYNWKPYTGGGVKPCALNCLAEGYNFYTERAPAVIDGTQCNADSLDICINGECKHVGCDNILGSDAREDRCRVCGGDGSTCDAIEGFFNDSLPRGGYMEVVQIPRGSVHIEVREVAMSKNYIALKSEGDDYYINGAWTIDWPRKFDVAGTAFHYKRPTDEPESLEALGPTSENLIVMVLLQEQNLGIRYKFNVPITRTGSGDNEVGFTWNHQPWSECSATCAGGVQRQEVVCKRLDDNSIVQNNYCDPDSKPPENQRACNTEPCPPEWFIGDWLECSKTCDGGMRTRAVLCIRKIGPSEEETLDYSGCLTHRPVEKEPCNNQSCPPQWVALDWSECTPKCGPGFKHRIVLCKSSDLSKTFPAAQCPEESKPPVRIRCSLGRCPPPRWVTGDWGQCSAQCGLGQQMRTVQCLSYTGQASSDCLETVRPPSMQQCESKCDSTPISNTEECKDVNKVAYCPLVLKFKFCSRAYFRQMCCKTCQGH
# Assay: hADAMTS-6 Assay
# Method: Without ADAMTS6, the emission of the probe is quenched. If the substrate is cleaved by ADAMTS6, the emission of the probe is not quenched anymore. […] The reaction is started by addition of 10 μL of 1 μM 520 MMP FRET Substrate XII (final concentration, diluted in same buffer as described above) and the mixture is incubated at 37° C. for 2 h. […] After this incubation, cleavage of the substrate is measured using the Envision (Perkin Elmer, exc485/em530).
smiles,measurement,value
"COc1c(Cl)cc(Cl)cc1C1CCN(C(=O)CC[C@H]2NC(=O)NC2=O)CC1 [US10550100, Compound 70]",IC50,> 100 nM
